According to article PMC8408311 (Diabetologia, 2021):
Like-named read-outs stand apart in the source and are kept apart here. Where no end group is shown, it is not given here.

Columns and labels:
[1] = RESTORE-2 naive cohort, retrospective propensity score matched study; format: in vivo, human; settings: for Incidence rate of blood glucose <54 mg/dl / Incidence rate of blood glucose ≤70 mg/dl: during 6 months; for FBG change at 6 months / FBG reduction at 6 months / HbA1c reduction from baseline to 12 months: in vivo; for HbA1c change from baseline to 6 months: propensity score matched, 357 per cohort
INS1E cells = assay: Fatty acid toxicity in INS1E cells; format: cell-based, rat; settings: 24 h
INS-1 832/13 cells = assay: mRNA expression in INS-1 832/13 cells under ER stress; format: cell-based, rat
male Wistar rats = assay: 30-min filament middle cerebral artery occlusion; format: in vivo, rat; settings: 48 h after MCAO; healthy 18 points, maximal deficit 3 points
H9C2 cells = assay: 2-NBD-Glucose uptake; format: cell-based; settings: for 2-NBD-Glucose uptake after insulin: 100nM 30min, 20 minutes; for 2-NBD-Glucose uptake after MG: 25μM MG 24h, after 60 min
[2] = 3-month exercise training with carnosine or placebo in overweight elderly; format: in vivo, human
[3] = Sodium-phenylbutyrate 2-week crossover trial in type 2 diabetes
[4] = tested on: mouse cardiac endothelial cells (MCECs); assay: Methylglyoxal treatment of mouse cardiac endothelial cells; format: cell-based
[5] = SURPASS-2, add-on to metformin in type 2 diabetes; format: in vivo, human; settings: TZP range over 5-15 mg; SEMA 1 mg
[6] = SUSTAIN 10 post hoc analysis by baseline SGLT-2i; format: in vivo, human
[7] = tested on: primary cilium of islet beta cells; assay: Cilia Ca2+ imaging in mouse islets; format: cell-based; settings: GABA 1-10 nM; GABAB-receptor agonist Baclofen; Vigabatrin (inhibition of GABA degradation)
Arrb2-/- beta cells = assay: Incretin responses in Arrb2-/- beta cells; format: cell-based, mouse
C2C12 myotubes = assay: C2-ceramide recycling and insulin response in C2C12 myotubes; format: cell-based, mouse
[8] = Insulin icodec titration trial, CGM hypoglycaemia duration, insulin-naive T2D; format: in vivo, human; settings: 4.4-7.2 mmol/L ±4 U/day
[9] = format: in vivo, human; settings: comparator arm
[10] = format: in vivo, human; settings: once weekly
[11] = Contribution of HFCS-55 fructose to hepatic fatty acid synthesis, 13C/2H NMR; format: in vivo, mouse
[12] = Ciprofibrate 5-week crossover study in prediabetic male volunteers; format: in vivo, human
[13] = training combined with carnosine 2g/day
[14] = 2-step hyperinsulinemic-euglycemic clamp

## Insulin Glargine 300U/mL [Gla-300]
[1]; 95%CI -0.29;0.27
  Between group mean difference in HbA1c at 6 months, Gla-300 vs IDeg-100: 0.01%
[1]
  Incidence rate of blood glucose <54 mg/dl: 0.02 episodes per patient-months
  Incidence rate of blood glucose ≤70 mg/dl: 0.13 episodes per patient-months
  FBG change at 6 months: -63 mg/dL
  FBG reduction at 6 months: 3.5 mmol/L
  HbA1c reduction from baseline to 12 months: -1.71%
  HbA1c change from baseline to 6 months: -1.70%

## CCCCCCCC/C=C\CCCCCCCC(=O)O [OA, oleate]
INS1E cells; INS1E-ctr cells, 500 μM each fatty acid, MTT
  Cell viability: 91%

## C/C=C(/C)C(=O)O[C@H]1C(C)=C2[C@H]([C@@H]1OC(=O)CCCCCCC)[C@@](C)(OC(C)=O)C[C@H](OC(=O)CCC)[C@@]1(O)[C@H]2OC(=O)[C@@]1(C)O [thapsigargin]
INS-1 832/13 cells
  Decrease of insulin mRNA expression (Ins1 and Ins2): 85%
  Increase of Atf4 mRNA expression: 3.0 fold
  Increase of Atf6 mRNA expression: 1.8 fold
  Increase of Cebpg mRNA expression: 3.7 fold
  Increase of Xbp1s mRNA expression: 2.9 fold

## CN(C)C(=N)N=C(N)N [MET, metformin]
Male Wistar rats
  Garcia score (neurological deficit): 12.0 (6.5; 12.5) points

## insulin
H9C2 cells; H9C2, 20mM glucose 3 months
  2-NBD-Glucose uptake after insulin: 17%
H9C2 cells; H9C2, 20mM glucose 6 months
  2-NBD-Glucose uptake after insulin: 8%
H9C2 cells; H9C2, 30mM glucose 3 months
  2-NBD-Glucose uptake after insulin: 15%
H9C2 cells; H9C2GLUT4, 20mM glucose 3 months
  2-NBD-Glucose uptake after insulin: 31%
H9C2 cells; H9C2GLUT4, 20mM glucose 6 months
  2-NBD-Glucose uptake after insulin: 27%
H9C2 cells; H9C2GLUT4, 30mM glucose 3 months
  2-NBD-Glucose uptake after insulin: 43%

## NCCC(=O)N[C@@H](Cc1cnc[nH]1)C(=O)O [carnosine]
[2]; exercise with carnosine
  Stimulation of coupled mitochondrial respiration rate in permeabilized muscle fibers, compared to exercise alone: 36.5%
[2]; [13]
  Improvement in aerobic fitness (VO2max): 14.8%
  Improvement in metabolic flexibility (ΔRQ): 7.3%
[2]; training combined with carnosine 2g/day, 3 months
  Improvement in sit-to-stand test: 9.2%

## O=C(O)CCCc1ccccc1 [NaPB, sodium-phenylbutyrate]
[3]; [14]
  Peripheral insulin sensitivity, higher than placebo: 27%
  ΔRd (insulin-stimulated glucose disposal rate minus baseline): 13.2 ± 1.8 µmol/kg/min
[3]; 4.8 g/m²/day for 2 weeks, LCMS
  Increase of plasma phenylbutyrate levels vs placebo: 5.5 fold
[3]; after 2 weeks
  Fasting glucose: 7.8 ± 0.4 mmol/L
  Fasting plasma isoleucine: 105.2 ± 3.5 µmol/L
  Fasting plasma leucine: 168.7 ± 5.1 µmol/L
  Fasting plasma valine: 275.3 ± 10.3 µmol/L
[3]; clamp
  Peripheral insulin-mediated glucose oxidation: 11.9 ± 0.7 µmol/kg/min
  ΔRER (metabolic flexibility): 0.09 ± 0.01
[3]; skeletal muscle ex vivo
  O2-flux, maximally coupled mitochondrial respiration fueled by pyruvate: 74.0 ± 4.1 pmol/s/mg

## CC(=O)C=O [MG, methylglyoxal]
H9C2 cells; 20mM glucose, printed 54% vs 44%
  2-NBD-Glucose uptake after MG: 54%
H9C2 cells; 30 mM glucose, printed 50% vs 39%
  2-NBD-Glucose uptake after MG: 50%
[4]; 500 μM, Hspa1a/Hspa1b KO cells
  Hspa9 mRNA, mean: 1.52 fold
  Hspa9 protein, mean: 3.17
  Hspd1 mRNA, mean: 1.57 fold
  Hspd1 protein, mean: 3.84
[4]; 500 μM, wild-type cells
  Drp1 mRNA: 1.39 fold
  Hspa1a mRNA, mean: 1.57 fold
  Hspa1a/Hspa1b protein level, mean: 1.56 fold
  Hspa1b mRNA, mean: 1.78 fold
  Hspa9 mRNA, mean: 1.42 fold
  Hspa9 protein, mean: 1.96 fold
  Hspd1 mRNA, mean: 2.11 fold
  Hspd1 protein, mean: 2.35 fold
[4]; Hspa1a/Hspa1b KO cells
  Drp1 mRNA, mean: 2.11
[4]; after MG treatment
  Bnip3, mean: 0.39 fold
  Parkin, mean: 0.45 fold
  Pink1, mean: 0.69 fold

## CC[C@H](C)[C@H](NC(=O)[C@H](Cc1ccccc1)NC(=O)[C@H](CCC(=O)O)NC(=O)[C@H](CCCCNC(=O)COCCOCCNC(=O)COCCOCCNC(=O)CC[C@H](NC(=O)CCCCCCCCCCCCCCCCC(=O)O)C(=O)O)NC(=O)[C@H](C)NC(=O)[C@H](C)NC(=O)[C@H](CCC(N)=O)NC(=O)CNC(=O)[C@H](CCC(=O)O)NC(=O)[C@H](CC(C)C)NC(=O)[C@H](Cc1ccc(O)cc1)NC(=O)[C@H](CO)NC(=O)[C@H](CO)NC(=O)[C@@H](NC(=O)[C@H](CC(=O)O)NC(=O)[C@H](CO)NC(=O)[C@@H](NC(=O)[C@H](Cc1ccccc1)NC(=O)[C@@H](NC(=O)CNC(=O)[C@H](CCC(=O)O)NC(=O)C(C)(C)NC(=O)[C@@H](N)Cc1cnc[nH]1)[C@@H](C)O)[C@@H](C)O)C(C)C)C(=O)N[C@@H](C)C(=O)N[C@@H](Cc1c[nH]c2ccccc12)C(=O)N[C@@H](CC(C)C)C(=O)N[C@H](C(=O)N[C@@H](CCCNC(=N)N)C(=O)NCC(=O)N[C@@H](CCCNC(=N)N)C(=O)NCC(=O)O)C(C)C [SEMA, semaglutide]
[5]
  Diarrhoea: 12%
  Nausea: 18%
  Vomiting: 8%

## CC[C@H](C)[C@H](NC(=O)[C@H](Cc1ccccc1)NC(=O)[C@H](CCC(=O)O)NC(=O)[C@H](CCCCNC(=O)COCCOCCNC(=O)COCCOCCNC(=O)CC[C@H](NC(=O)CCCCCCCCCCCCCCCCC(=O)O)C(=O)O)NC(=O)[C@H](C)NC(=O)[C@H](C)NC(=O)[C@H](CCC(N)=O)NC(=O)CNC(=O)[C@H](CCC(=O)O)NC(=O)[C@H](CC(C)C)NC(=O)[C@H](Cc1ccc(O)cc1)NC(=O)[C@H](CO)NC(=O)[C@H](CO)NC(=O)[C@@H](NC(=O)[C@H](CC(=O)O)NC(=O)[C@H](CO)NC(=O)[C@@H](NC(=O)[C@H](Cc1ccccc1)NC(=O)[C@@H](NC(=O)CNC(=O)[C@H](CCC(=O)O)NC(=O)C(C)(C)NC(=O)[C@@H](N)Cc1cnc[nH]1)[C@@H](C)O)[C@@H](C)O)C(C)C)C(=O)N[C@@H](C)C(=O)N[C@@H](Cc1c[nH]c2ccccc12)C(=O)N[C@@H](CC(C)C)C(=O)N[C@H](C(=O)N[C@@H](CCCNC(=N)N)C(=O)NCC(=O)N[C@@H](CCCNC(=N)N)C(=O)NCC(=O)O)C(C)C [semaglutide]
[6]; with SGLT-2i
  Premature treatment discontinuations due to AEs: 5.5%
[6]; without SGLT-2i
  Premature treatment discontinuations due to AEs: 13.4%

## NCCCC(=O)O [GABA, Gamma aminobutyric acid]
[7]
  Increase of occurrence of cilia Ca2+ flashes: 3-4 fold

## NCC(CC(=O)O)c1ccc(Cl)cc1 (stereo not shown) [Baclofen]
[7]
  Increase of occurrence of cilia Ca2+ flashes: 3-4 fold

## glucagon-like peptide 1 (HAEGTFTSDVSSYLEGQAAKEFIAWLVKGR; ends and bridges not checked; UniProt P01275 98-127, looked up) [GLP-1]
Arrb2-/- beta cells
  Reduction of ERK1/2 activation in Arrb2-/- beta cells: ~ 50%

## CCCCCCCCCCCCC/C=C/[C@@H](O)[C@H](CO)NC(C)=O [C2cer, C2-Cer]
C2C12 myotubes; at 25 mM glucose
  Effect on the insulin signal: inhibited completely the insulin signal

## C=CC(N)CCC(=O)O (stereo not shown) [Vigabatrin]
[7]
  Increase of occurrence of cilia Ca2+ flashes: 3-4 fold

## CCCCCCCCCCCCCCCC(=O)O [PA, palmitate]
INS1E cells; INS1E-SPL cells, 500 μM
  Viability decrease stronger than in INS1E-ctr: ~ 25%
INS1E cells; INS1E-SPP cells, 500 μM
  Cell viability loss: 20%

## Insulin Degludec 100 U/mL [IDeg-100]
[1]
  Incidence rate of blood glucose <54 mg/dl: 0.02 episodes per patient-months
  Incidence rate of blood glucose ≤70 mg/dl: 0.14 episodes per patient-months
  FBG change at 6 months: -61 mg/dL
  FBG reduction at 6 months: 3.4 mmol/L
  HbA1c reduction from baseline to 12 months: -1.44%
  HbA1c change from baseline to 6 months: -1.69%

## insulin glargine U100 [IGlar U100]
[8]
  Overall hypoglycaemic episode duration, median (IQR): 35.0 (20.0, 70.0) min
[9]
  Overall hypoglycaemic episode duration, median (IQR): 35.0 (20.0, 60.0) min

## COc1ccc(/C=C/C(=O)c2c(-c3ccccc3)c3ccccc3[nH]c2=O)cc1 [ceranib-2]
C2C12 myotubes; 2 h treatment, ceranib-2 alone
  Accumulation in total endogenous Cer content: 50%

## NCCCC(O)(P(=O)(O)O)P(=O)(O)O [alendronate]
Ever use
  Crude OR of developing type 2 diabetes: 0.93
  Multiple adjusted OR of developing type 2 diabetes: 0.64
More than 8 years of use
  Adjusted OR of developing type 2 diabetes: 0.47

## Basal insulin Fc [BIF]
[10]; BIF-A1, fasting glucose target ≤7.8 mmol/L
  HbA1c reduction from baseline to Week 32, mean±SE: 0.6±0.1%
[10]; BIF-A2, fasting glucose target ≤6.7 mmol/L
  HbA1c reduction from baseline to Week 32, mean±SE: 0.6±0.1%

## O=C(CO)[C@@H](O)[C@H](O)[C@H](O)CO [fructose]
[11]; HFHS mice
  contribution of acetyl-CoA to oleate synthesis: 7 ± 2%
  contribution of acetyl-CoA to palmitoleate synthesis: 7 ± 2%
  contribution of acetyl-CoA to the synthesis of SFA: 18 ± 3%
[11]; HS mice
  contribution of acetyl-CoA to oleate synthesis: 16 ± 3%
  contribution of acetyl-CoA to palmitoleate synthesis: 18 ± 3%
[11]; HS mice, mean ± standard error
  contribution of acetyl-CoA to the synthesis of SFA: 28 ± 4%

## CC(C)(Oc1ccc(C2CC2(Cl)Cl)cc1)C(=O)O (stereo not shown) [ciprofibrate]
[12]; 100 mg/day for 5 weeks
  Hepatic lipid content: 10.4 ± 10.0%
  Serum triglycerides: 1.57 ± 1.05 mmol/L
[12]; 18F-FDG PET during clamp
  Myocardial net glucose uptake: 0.040 ± 0.024 ml/100ml/min/mIU insulin
[12]; 18F-FDG PET during hyperinsulinemic euglycemic clamp
  Net hepatic glucose uptake (Ki): 0.7 ± 0.2 ml/100ml/min
